Assay results taken from US10575520B2, “Cyclohexylamine-based compounds and uses thereof” (BOARD OF SUPERVISORS OF LOUISIANA STATE UNIVERSITY AND …, priority 2016, dated 2020).
Where a name gives a salt, the structure may show the parent alone.

How the values were obtained:
[1] = tested on: worker C. formosanus termites; test: Dose-response feeding assay (termite mortality on treated filter paper); conditions: for mortality versus control group: 14 day assay
Description: Worker C. formosanus were collected from Brechtel Park, New Orleans, La. by methods known in the art. Bait crates (open-mesh plastic containers) filled with southern yellow pine or spruce-pine-fir sapwood were arranged into a lattice and buried near a C. formosanus infested tree and collected after 3 to 9 weeks. Termite-containing crates were held in 250-liter plastic garbage cans kept at room temperature (26-28 C) and 70-80% relative humidity with the original food source. Termites were collected from New Orleans on 13 Jun. 2006 (collection group A); 9 Aug. 2006 (collection group B); 1 Mar. 2008 (collection group C); 9 May 2008 (collection group D); 20 May 2008 (collection group E); 20 Mar. 2009 (collection group F); 29 May 2009 (collection group G) and 11 May 2010 (collection group H); 18 Aug. 2012 (collection group I); May 2014 (collection group J); August 2014 (collection group K). The termite collection procedure was tapping infested wood sticks into clean plastic containers where termites were collected on moistened paper towels.
2-phospho-myo-inositol (dicyclohexylamine salt), glycerol-3-phosphate (dicyclohexylamine salt), dicyclohexylamine phosphate, monocyclohexylamine phosphate, and neat cyclohexylamine were screened for termiticide activity as follows: test compounds were applied to 42.5 mm×3 μm filter papers, in 60×15 mm plastic Petri dishes, in a solution of 1 mg of test compound per 10 μL of distilled water. Doses of 2.5 mg (160.2 μg/mm^3 of filter paper), 5 mg (320.4 μg/mm^3) 10 mg (640.8 μg/mm^3), and 20 mg (1281.7 μg/mm^3) of 2-phospho-myo-inositol were examined. Following filter paper treatment distilled water was added to bring the total volume applied to the filter papers to 300 μL, using 300 μL of distilled water as control. Cyclohexylamine was applied to the paper diluted in amounts of 300 μL, in concentrations ranging from 0.626 to 10.2 μg/mm^3. To prevent desiccation, approximately 50 μL of distilled water was applied to filter paper throughout the trials every third day, or upon observing that a filter paper disc was relatively dry. To test whether termite mortality was induced by consumption of the cyclohexylamine-treated paper, or whether vapor presence of cyclohexylamine was responsible for the toxicity, we compared addition of cyclohexylamine to both paper and fiberglass filters—the latter of which they will not consume. In addition to pure cyclohexylamine, dicyclohexylamine phosphate and monocyclohexylamine phosphate were tested for toxicity. Dicyclohexylamine phosphate was tested in concentrations ranging from 0.348 to 348 μg/mm^3, and monocyclohexylamine phosphate was tested in concentrations ranging from 2.28 to 228 μg/mm^3. Replicates of twenty worker termites were incubated in the dark in a parafilm-sealed Petri dish at room temperature for 2 weeks. Termite mortality was recorded daily in triplicate experiments. An analysis of variance (ANOVA) (SAS ANOVA procedure) followed by Tukey's Studentized range test was used to evaluate statistical differences among groups (Institute 1989). All mortality data were judged at a=0.05.
Termites from collection group B were used in the 2-Phospho-Myo-Inositol dose mortality assay. Termites from collection groups C and D were used in both the dicyclohexylamine-2-phophoinositol, and dicylclohexyalmine-glycerol-3-phosphate dose mortality assay. Termites from collection group I were used in cyclohexylamine dose mortality assays. Termites from collection […] in the dicyclohexylamine phosphate and neat cyclohexylamine volatility dose mortality assays. Termites from collection group K were used in the monocyclohexylamine phosphate dose mortality assay.

[2] = tested on: worker termites (C. formosanus) antennae; test: Termite antenna ablative shortening (antenna length quantification); type: in vivo, Coptotermes formosanus; conditions: 640.8 μg/mm^3, 14 day assay
Procedure: Fifty worker termites, from collection group B, were placed in a 60×15 mm polystyrene petri dish with 42.5 mm filter paper treated with 10 mg of 2-phospho-myo-inositol (640.8 μg/mm^3). Daily for 14 day three randomly selected termites were removed, euthanized with 5 μL of ethanol and their antennae were photographed, after which, GSA image analyzer was used to quantify the length of the termite antennae (Bansemer and Scheel 2010). Antenna length data were subjected to ANOVA followed by Tukey's Studentized range test (Institute 1989). All data were judged at α=0.05. All experiments were performed in triplicate.

[3] = tested on: C. formosanus hindgut protozoan populations; test: Protozoan counting, total hindgut protozoa; type: in vivo, Coptotermes formosanus; conditions: 640.8 μg/mm^3, 14 day assay
Procedure: (§1) The effect of 2-phospho-myo-inositol dicyclohexylamine salt on C. formosanus hindgut protozoan populations was examined as follows: Ten mg of 2-phospho-myo-inositol were dissolved in 200 μL of distilled water and applied to filter paper, in a 60×15 mm plastic Petri dish, (640.8 μg/mm^3). Control filter paper received 200 μL of distilled water. With 75 worker termites per dish, collection group A were used. Pseudotrichonyrnpha grassii Koidzumi, Holornastigotoides hartmanni Koidzumi and Spirotrichonympha leidyi Koidzumi were counted daily for 2 week as described in Mannesmann, R., Z. Angew. Entomol. 72: 116-128 (1972); and modified by Maiastrello, L., et al., Pest Manag. Sci. 59: 58-68 (2002). Hindguts were removed from the posterior ends of three workers and gently macerated in 40 μL saline solution containing neutral red dye (0.5 mL of 1% aqueous neutral red solution dissolved in 10 mL saline solution). The number of each protozoan species was determined using a hemocytometer (Bright-line Improved Neubauer, Hausser Scientific, Horsham, Pa.) under a light microscope. The population of each protozoan species per hindgut (XF) was calculated as: XF=(G×n)/(V×3), where G=volume (μL) of solution hindguts dissected in; n=mean of two counts within hemocytometer; V=volume (μL) of area counted. Mean (±SE) XF values calculated from two replicates were used for graphical comparison of data. […]

[4] = tested on: Holornastigotoides hartmanni Koidzumi; test: Protozoan counting, H. hartmanni; type: in vivo; conditions: 640.8 μg/mm^3, 14 day assay
Procedure: as §1

[5] = tested on: Pseudotrichonyrnpha grassii Koidzumi; test: Protozoan counting, P. grassii; type: in vivo; conditions: 640.8 μg/mm^3, 14 day assay
Procedure: as §1

[6] = tested on: Spirotrichonympha leidyi Koidzumi; test: Protozoan counting, S. leidyi; type: in vivo; conditions: 640.8 μg/mm^3, 14 day assay
Procedure: as §1

For `O=P(O)(O)OC1[C@@H](O)[C@H](O)C(O)[C@H](O)[C@H]1O` (some centres unmarked) [2-Phospho-Myo-Inositol, 2-phospho-myo-inositol (di-cyclohexylamine salt)], the “mortality versus control group” value ([1]; 160.2 μg/mm^3 filter paper) was “did not result in mortality significantly different from the control group”, the “mortality versus control group” value ([1]; 320.4 μg/mm^3 filter paper) was “did not result in mortality significantly different from the control group” and the “mortality versus control group” value ([1]; 640.8 μg/mm^3 filter paper) was “did not result in mortality significantly different from the control group”. For the same molecule, the “day on which mortality became significant” value ([1]; 1281.7 μg/mm^3) was “eight”, the mortality ([1]; 1281.7 μg/mm^3, day 14) was 98% and the mortality ([1]; 1281.7 μg/mm^3, day eight) was “Forty three”. The “termite antennae length versus control” value [2] was “significantly reduced termite antennae of day five and six and eight through 14”, the “total protozoan populations versus control” value [3] was “reduced total protozoan populations day four and thereafter” and the “H. hartmanni populations versus control” value [4] was “significantly reduced on day one, two, five, eight, nine, 10, 11 and 14”. For the same molecule, the “P. grassii populations versus control” value [5] was “significantly lowered on day one, five, eight, nine, 10 and 11” and the “S. leidyi populations versus control” value [6] was “significantly lower than controls on day nine and 11”.
